Measured values taken from ChEMBL document CHEMBL5724696, “Autophagy assay results for EUbOPEN Chemogenomics Library” (2024).

Legend:
Type in all cases: functional, Homo sapiens
U2OS [1] = test: (§1) Here: values are normalized to the negative (DMSO; defined as 0% autophagy induction) and positive (250nM Torin1; mTOR inhibitor; defined as maximal inducer of autophagy = 100%) control compounds and represented as % of autophagy induction. […] The impact of autophagy induction on cells is complex and depends on the affected target. As such, the magnitude of a phenotype may not be equally mirrored in the %-value of autophagy induction and vice versa. The dynamics of the induction may indicate the mode of activation: e.g. activation via phosphorylation or a signaling cascade may occur fast, while activation via transcription factors may take considerably longer. […] Of note, treatment concentrations may be sub-optimal for specific compounds, leading to false negative annotations.; conditions: Culturing Media DMEM, 1 % Penicillin/Streptomycin, 10% Fetal bovin serum Add-On: No, Screening Media Control DMEM, Screening Media Samples DMEM
U2OS [2] = test: as §1; conditions: Culturing Media DMEM, 1 % Penicillin/Streptomycin, 10% Fetal bovin serum Add-On: No, Screening Media Control DMEM, Screening Media Samples DMEM; remark: listed apart in the source
TERT-RPE1 = test: as §1; conditions: Compound Concentration 1 uM, Culturing Media DMEM/F12 (1:1), 1 % Penicillin/Streptomycin, 10% Fetal bovin serum Add-On: No, Screening Media Control DMEM/F12 (1:1), Screening Media Samples DMEM/F12 (1:1)
[3] = Compound Concentration 0.5 uM, Timepoint 12 hours
[4] = Compound Concentration 0.5 uM, Timepoint 24 hours
[5] = Compound Concentration 0.5 uM, Timepoint 36 hours
[6] = Compound Concentration 0.5 uM, Timepoint 60 hours
[7] = Compound Concentration 2 uM, Timepoint 12 hours
[8] = Compound Concentration 2 uM, Timepoint 24 hours
[9] = Compound Concentration 2 uM, Timepoint 36 hours
[10] = Compound Concentration 2 uM, Timepoint 60 hours
[11] = Compound Concentration 10 uM, Timepoint 12 hours
[12] = Compound Concentration 10 uM, Timepoint 24 hours
[13] = Compound Concentration 10 uM, Timepoint 36 hours
[14] = Compound Concentration 10 uM, Timepoint 60 hours

SMILES | autophagy induction (U2OS [1]; [3]) [%] | autophagy induction (U2OS [1]; [4]) [%] | autophagy induction (U2OS [1]; [5]) [%] | autophagy induction (U2OS [1]; [6]) [%] | autophagy induction (U2OS [1]; [7]) [%] | autophagy induction (U2OS [1]; [8]) [%] | autophagy induction (U2OS [1]; [9]) [%] | autophagy induction (U2OS [1]; [10]) [%] | autophagy induction (U2OS [1]; [11]) [%] | autophagy induction (U2OS [1]; [12]) [%] | autophagy induction (U2OS [1]; [13]) [%] | autophagy induction (U2OS [1]; [14]) [%] | autophagy induction (U2OS [2]; [3]) [%] | autophagy induction (U2OS [2]; [4]) [%] | autophagy induction (U2OS [2]; [5]) [%] | autophagy induction (U2OS [2]; [6]) [%] | autophagy induction (TERT-RPE1; Timepoint 12 hours) [%] | autophagy induction (TERT-RPE1; Timepoint 24 hours) [%] | autophagy induction (TERT-RPE1; Timepoint 36 hours) [%] | autophagy induction (TERT-RPE1; Timepoint 60 hours) [%] | further results
O=C(O)COc1cccc(CN(Cc2ccc(-n3cccn3)cc2)S(=O)(=O)c2cccnc2)c1 | 1.733 | -2.792 | -2.001 | 114.184 | 12.9626 | 0.7228 | 0.396 | 114.202 | 2.661 | -2.358 | 0.08453 | 114.175 | 5.874 | 2.74 | 1.495 | -1.697 | – | – | – | – | autophagy induction (U2OS [2]; [7]): -11.5162%; autophagy induction (U2OS [2]; [8]): -13.8805%; autophagy induction (U2OS [2]; [9]): -8.014%; autophagy induction (U2OS [2]; [10]): -12.1859%; autophagy induction (U2OS [2]; [11]): -5.999%; autophagy induction (U2OS [2]; [12]): -5.085%; autophagy induction (U2OS [2]; [13]): -8.443%; autophagy induction (U2OS [2]; [14]): 1.395%
CC(C)(N)C(=O)N[C@H](COCc1ccccc1)C(=O)N1CCC2(CC1)CN(S(C)(=O)=O)c1ccccc12.CS(=O)(=O)O [IBUTAMOREN MESYLATE] | 0.1513 | -2.852 | -1.869 | 114.207 | 2.232 | 1.174 | -0.1276 | 113.997 | 21.0515 | 11.8835 | 9.457 | 114.001 | -8.194 | -5.824 | -3.752 | 0.1138 | – | – | – | – | autophagy induction (U2OS [2]; [7]): -4.688%; autophagy induction (U2OS [2]; [8]): -1.11%; autophagy induction (U2OS [2]; [9]): 1.85%; autophagy induction (U2OS [2]; [10]): -0.8182%; autophagy induction (U2OS [2]; [11]): 7.887%; autophagy induction (U2OS [2]; [12]): 2.743%; autophagy induction (U2OS [2]; [13]): 7.197%; autophagy induction (U2OS [2]; [14]): 14.096%
Cc1c(OCc2cccc(-c3ccc(C(=O)O)cc3)c2)cc2c(c1C)C(=O)C(C1CCCC1)C2 (configuration not stated) | -1.105 | -3.325 | -3.23 | 114.413 | 3.182 | -1.283 | -1.767 | 114.283 | 2.021 | -2.128 | 0.06533 | 114.104 | 16.7916 | 7.662 | 9.473 | -0.5665 | – | – | – | – | autophagy induction (U2OS [2]; [7]): 6.511%; autophagy induction (U2OS [2]; [8]): 6.165%; autophagy induction (U2OS [2]; [9]): 2.879%; autophagy induction (U2OS [2]; [10]): -1.177%; autophagy induction (U2OS [2]; [11]): 6.9%; autophagy induction (U2OS [2]; [12]): 7.1725%; autophagy induction (U2OS [2]; [13]): 8.617%; autophagy induction (U2OS [2]; [14]): 11.2815%
CC(C)Oc1ccccc1C(=O)Nc1ccccc1C(=O)Nc1cccc(S(=O)(=O)C(F)(F)F)c1 | 3.012 | -1.737 | -1.42 | 114.268 | 8.776 | 3.511 | 2.272 | 113.873 | -16.0939 | -18.3481 | -11.2669 | 115.068 | -12.7089 | -12.2172 | -12.6004 | -17.6606 | – | – | – | – | autophagy induction (U2OS [2]; [7]): 2.367%; autophagy induction (U2OS [2]; [8]): 0.4504%; autophagy induction (U2OS [2]; [9]): -2.457%; autophagy induction (U2OS [2]; [10]): -5.945%; autophagy induction (U2OS [2]; [11]): 11.8819%; autophagy induction (U2OS [2]; [12]): 14.0193%; autophagy induction (U2OS [2]; [13]): 13.5851%; autophagy induction (U2OS [2]; [14]): 17.9189%
COc1cc(-n2cnc3cc(-c4ccc(Cl)cc4)sc3c2=O)ccc1OCCN1CCCC1 | 4.067 | -3.025 | -2.555 | 114.356 | 0.09165 | 1.732 | 0.6188 | 114.522 | -26.0106 | -13.6231 | -7.579 | 114.809 | -1.171 | 2.823 | 1.029 | -2.152 | – | – | – | – | autophagy induction (U2OS [2]; [7]): -14.2965%; autophagy induction (U2OS [2]; [8]): -7.54%; autophagy induction (U2OS [2]; [9]): -8.816%; autophagy induction (U2OS [2]; [10]): -10.4701%; autophagy induction (U2OS [2]; [11]): 7.721%; autophagy induction (U2OS [2]; [12]): 15.3334%; autophagy induction (U2OS [2]; [13]): 18.9257%; autophagy induction (U2OS [2]; [14]): 17.8082%
C=C1/C(=C\C=C2/CCC[C@]3(C)[C@@H]([C@H](C)CCCC(C)(C)O)CC[C@@H]23)C[C@@H](O)C[C@@H]1O [CALCITRIOL] | – | – | – | – | – | – | – | – | – | – | – | – | – | – | – | – | 36.7455 | -4.807 | 11.5028 | -14.2726 | –
O=C(O)CCCc1cc2cc(Cl)ccc2n1S(=O)(=O)c1ccc2ncsc2c1 [LANIFIBRANOR] | – | – | – | – | – | – | – | – | – | – | – | – | – | – | – | – | -95.7021 | -0.9693 | 14.6224 | -20.9711 | –
O=C(O)Cc1cc(I)c(Oc2ccc(O)c(I)c2)c(I)c1 [TIRATRICOL] | – | – | – | – | – | – | – | – | – | – | – | – | – | – | – | – | -9.01 | -9.767 | -3.577 | 11.3725 | –
COc1ccc(-c2ccc3cc(C(=O)O)ccc3c2)cc1C12CC3CC(CC(C3)C1)C2 | – | – | – | – | – | – | – | – | – | – | – | – | – | – | – | – | -16.1508 | -22.2133 | -14.1287 | 30.465 | –
O=S(=O)(c1ccccc1)N(CC(F)(F)F)c1ccc(C(O)(C(F)(F)F)C(F)(F)F)cc1 [T091317] | – | – | – | – | – | – | – | – | – | – | – | – | – | – | – | – | -11.1926 | -0.1715 | 8.77 | -29.9579 | –
CCc1ccc(N(CC(C)C)S(=O)(=O)c2ccc(OCC3CCOCC3)c(CO)c2)cc1 [GSK2981278] | – | – | – | – | – | – | – | – | – | – | – | – | – | – | – | – | 1.382 | -2.385 | -1.59 | 5.376 | –
N[C@@H](Cc1cc(I)c(Oc2ccc(O)c(I)c2)c(I)c1)C(=O)O [LIOTHYRONINE] | – | – | – | – | – | – | – | – | – | – | – | – | – | – | – | – | 142.376 | -11.4171 | 8.172 | -7.587 | –
CC(=O)Oc1ccc2c(c1)[C@@]1(C)CCC[C@](C)(C(=O)OC(=O)[C@@]3(C)CCC[C@]4(C)c5cc(OC(C)=O)ccc5CC[C@@H]34)[C@@H]1CC2 [ACETYL PODOCARPIC ACID ANHYDRIDE] | – | – | – | – | – | – | – | – | – | – | – | – | – | – | – | – | -1.145 | -5.055 | -3.143 | -11.9263 | –
